Test [1] concerns endothelial cells. Description: VEGF-stimulated endothelial cell proliferation (cell count). The following applies: 10 ng/mL of VEGF. The class given is cell-based.
Description: Cellular proliferation is measured by cell count. 7,000 endothelial cells are placed in the wells of 24-well plates (Costar) in DMEM medium containing newborn bovine serum. […] Two days later, the cells area once again stimulated by VEGF in the presence or absence of different concentrations of peptide. At the fifth day, the cells are trypsinized and counted using a Coulter counter.
A further test concerns ERK2 (p42). Description: VEGF-induced phosphorylation of ERK2 (p42), Western blot, capillary endothelial cells. In kind it is cell-based. The following applies: p42 and p44 together, 10 ng/mL of VEGF. The procedure:
Phosphorylation of ERK1 (p44) and ERK2 (p42) is measured by Western blot using anti p42/p44 antibodies (New England Biolabs). The capillary endothelial cells are cultivated in DMEM containing 10% newborn bovine serum. Subconfluent cultures are then deprived of serum over a period of 24 hours. The peptides are then added at specific concentrations over 5 minutes to the cells in the presence or absence of 10 ng/mL of VEGF. The cells are then removed from the culture flasks and lysed for 20 minutes over ice in lysis buffer containing […], pH 7.4, 75 mM NaCl, 1 mM EDTA, 1% Nonidet P-40 and 0.01% of SDS. The insoluble material is removed by centrifugation and 50 μg/mL of protein extract are separated by polyacrylamide gel electrophoresis containing sodium dodecyl sulfate (SDS) under denaturing conditions. The proteins are then transferred from the gel onto a nitrocellulose membrane (Amersham Pharmacia Biotech, Orsay) using a transfer apparatus (semi-dry transfer, Bio-Rad, Irvy-sur-Seine, France). […] The results are quantified using the Image Quant program (Molecular Dynamics).
The assays were done as indicated. […] The degree of phosphorylation is estimated after quantification of the signals obtained using autoradiographic films and the results are expressed in percent inhibition relative to the signal obtained using 10 ng/mL of VEGF alone.
Background: In western blotting, separated proteins are transferred to a membrane and probed.

For test [2], the system named is endothelial cells. Description: VEGF-stimulated endothelial cell migration (monolayer denudation). The following applies: 10 ng/mL VEGF. In kind it is cell-based.
Description: Cellular migration is measured according to the method described by Sato and Rifkin (J. Cell Biol., September, 1988, (107 (3): 1199–205) [17] with modifications. 100,000 endothelial cells are placed in 35 mm culture flasks in DMEM medium containing 10% fetal calf serum. On confluence, the medium is replaced by DMEM medium without serum and the cells are incubated overnight. On the next day, denudation is done artificially in the monolayer using a sterile pipette tip. A series of digital photographs is taken and the border of denudation is marked by a line using the BiocomVisionLab2000 program. The flasks are then rinsed and incubated with 10 ng/mL VEGF in the presence or absence of peptide. After 18 hours of incubation a new series of photographs is taken and the before and after stimulation images are superimposed. The cells situated beyond the border of denudation are counted.
The target in the next test is T1, KDR receptor (VEGFR2) (Homo sapiens, UniProt P35968).
T1 construct: expressed in transfected cells; host or cells: heparan sulfate deficient Chinese hamster ovary cells (CHOm VEGFR2), VEGFR2 cDNA in psV-7d vector
Description: Inhibition of 125I-VEGF binding to KDR receptor on CHOm VEGFR2 cells. The following applies: CHOm VEGFR2 cells, 125I-VEGF. How it is done: The P1 to P24 peptides are tested as concerns their property of inhibition of the binding of VEGF to its KDR receptor.
For these tests, heparin sulfate deficient Chinese hamster ovarian cells that are transfected with an expression vector containing VEGFR2cDnA (CHOm VEGFR2 cells) are used.
The CHOm VEGFR2 cells are routinely cultured in Dulbecco modified Eagle medium and supplemented with 10% (v/v) fetal calf serum (FCS), 50 U/ml penicillin, 50 μg/ml streptomycin, 1 mg/ml glucose and 2 mM L-glutamine at 37° C. in a 5% CO2 atmosphere.
The subconfluent flasks are transferred at 4° C. […] At the end of the incubation period, the cells are washed 3 times using iced PBS and solubized in 1 mL of buffer with 2% Triton X 100, 10% glycol, 1 mg/mL bovine serum albumin BSA. The radioactivity rate bound to the cells is counted in an MR-250 Kontron gamma counter. […] Specific binding is calculated by subtracting non-specific binding from total binding.
These assays are continued using the cyclopeptides of interest and two linear peptides as controls for an inhibition analysis as a function of dose.

The text below walks through data of patent publication US7199100B2, “Cyclic peptides, method for preparing and use as angiogenesis inhibitors or activator” (Commissariat a l'Energie Atomique, priority 2000, dated 2007).

Molecules are shown by their SMILES. Square brackets hold non-standard residues; d marks the D form. Peptide text beside a SMILES is read from it.

T1 sequence (P35968 20-1356, species assumed): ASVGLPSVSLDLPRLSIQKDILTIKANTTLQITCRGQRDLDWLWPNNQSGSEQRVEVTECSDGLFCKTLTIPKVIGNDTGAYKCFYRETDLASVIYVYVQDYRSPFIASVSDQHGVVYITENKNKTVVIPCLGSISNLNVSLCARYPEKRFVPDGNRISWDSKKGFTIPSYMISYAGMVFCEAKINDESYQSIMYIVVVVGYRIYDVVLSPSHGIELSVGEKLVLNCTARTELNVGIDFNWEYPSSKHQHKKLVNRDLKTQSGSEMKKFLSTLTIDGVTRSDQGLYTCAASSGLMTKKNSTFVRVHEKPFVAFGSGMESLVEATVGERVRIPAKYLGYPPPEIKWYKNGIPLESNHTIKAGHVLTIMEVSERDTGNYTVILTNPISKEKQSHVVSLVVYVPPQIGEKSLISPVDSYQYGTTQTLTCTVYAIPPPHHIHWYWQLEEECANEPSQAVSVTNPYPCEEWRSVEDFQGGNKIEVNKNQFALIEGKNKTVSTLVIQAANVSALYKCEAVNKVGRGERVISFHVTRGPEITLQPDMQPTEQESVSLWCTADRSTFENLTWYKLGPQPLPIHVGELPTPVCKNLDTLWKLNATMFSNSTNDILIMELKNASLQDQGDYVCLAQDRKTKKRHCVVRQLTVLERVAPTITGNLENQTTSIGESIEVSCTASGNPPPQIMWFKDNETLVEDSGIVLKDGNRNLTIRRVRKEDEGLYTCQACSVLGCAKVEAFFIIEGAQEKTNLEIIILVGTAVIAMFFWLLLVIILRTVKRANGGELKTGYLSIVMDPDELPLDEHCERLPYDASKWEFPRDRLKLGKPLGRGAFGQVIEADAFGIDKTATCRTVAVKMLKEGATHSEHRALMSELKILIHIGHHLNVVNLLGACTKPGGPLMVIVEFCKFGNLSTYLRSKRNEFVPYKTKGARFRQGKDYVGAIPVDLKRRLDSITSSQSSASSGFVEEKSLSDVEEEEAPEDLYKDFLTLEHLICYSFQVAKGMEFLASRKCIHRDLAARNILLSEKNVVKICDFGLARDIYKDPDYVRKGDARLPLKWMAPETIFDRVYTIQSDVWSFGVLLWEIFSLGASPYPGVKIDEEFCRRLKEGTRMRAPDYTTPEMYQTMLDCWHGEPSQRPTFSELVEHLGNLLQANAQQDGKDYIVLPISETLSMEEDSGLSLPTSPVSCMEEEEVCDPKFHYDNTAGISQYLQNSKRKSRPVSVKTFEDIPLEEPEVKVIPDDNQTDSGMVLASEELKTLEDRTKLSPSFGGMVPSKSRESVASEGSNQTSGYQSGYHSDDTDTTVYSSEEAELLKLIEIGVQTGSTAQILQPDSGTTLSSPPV

`CC[C@H](C)[C@@H]1NC(=O)[C@H](Cc2c[nH]cn2)NC(=O)[C@H](CCC(N)=O)NC(=O)CNC(=O)[C@H](CCC(N)=O)NC(=O)[C@H](Cc2c[nH]cn2)NC(=O)[C@@H]2CCCN2C(=O)[C@H](CCCCN)NC(=O)[C@H]([C@@H](C)CC)NC(=O)[C@H](CCCNC(=N)N)NC(=O)[C@H](CCSC)NC(=O)[C@H]([C@@H](C)CC)NC(=O)[C@H](CCC(N)=O)NC(=O)[C@@H]2CCCN2C(=O)[C@@H](Cc2ccccc2)NC(=O)[C@H](CCC(=O)O)NC(=O)CNC1=O` [Peptide P11] (cyclo([dF]PQIMRIKPHQGQHIGE)): the “inhibition of cellular proliferation (in words)” value with endothelial cells [1] is recorded as “strong inhibition”. The “inhibition of phosphorylation of p42/p44 (in words)” value with ERK2 (p42) is recorded as “strongly inhibits”. In addition, in the test on endothelial cells [2], the “inhibition of cellular migration (in words)” value is given as “strongly inhibits”. The “inhibiting binding of VEGF to the KDR receptor (in words)” value at KDR receptor (VEGFR2) is “very effective”.
